Results: patent US20100204108A1, “USE OF NEUROTROPHIC FACTOR FOR RETINAL CHOLINERGIC NEURONS (NFRCN) AND CHORIONIC GONADOTROPIN-BETA (109-145) AS THERAPEUTIC AGENTS” (priority 2007, published 2010)
Ends that are not written are not given here.

Experiments:
[1] = test system: HIV-1IIIB; details: positive controls
[2] = test system: hepatitis B virus (HBV) ayw strain; assay: HBV assay in HepG2-2.2.15 cells, secreted HBV DNA by TaqMan PCR; type: cell-based; details: 10 micrograms per ml, six days, HBV DNA in supernatant
[3] = test system: Th1/Th2 cytokines in spleen cells; assay: Th1/Th2 cytokine profiling assay (Ovalbumin-restimulated spleen cells, CBA kit); type: cell-based, Balb/c mice; details: 10 micrograms per ml; Ovalbumin restimulation; 72 hours
[4] = test system: LPS-induced TNF-alpha production in human macrophages; assay: TNF alpha production assay (LPS-stimulated macrophages, ELISA); type: cell-based; details: 10 micrograms per ml; LPS 200 ng/ml; overnight
Excerpt: Not stimulated macrophages served as negative background control.

[5] = test system: HUVEC; assay: Endothelial tube formation assay; type: cell-based, human; details: 10 micrograms per ml, 20 hours
Excerpt: Positive control was vehicle only.

[6] = test system: HCMV strain AD169; assay: HCMV plaque formation assay in MRC-5 cells; details: 10 micrograms per ml, 7-10 days

Row | Molecule | antiviral activity of positive control compounds (HIV-1) [1] | inhibition of HBV replication as compared to the virus control infection [2] | IFNγ spleen cells; TH1 response (% of control) [3] | IL-2 spleen cells (% of control) [3] | IL-4 spleen cells; TH2 response (% of control) [3] | IL-5 spleen cells; TH2 response (% of control) [3] | TNF-a spleen cells; TH1 response (% of control) [3] | induction of the LPS-induced TNF-alpha production in human macrophages [4] | inhibition of the tube formation of endothelial cells [5] | inhibition of HCMV plaque formation as compared to the virus control [6]
1 | Cc1cn([C@H]2C[C@H](N=[N+]=[N-])[C@@H](CO)O2)c(=O)[nH]c1=O [AZT] | expected levels of antiviral activity |  |  |  |  |  |  |  |  | 
2 | CC(C)(C)NC(=O)[C@@H]1CN(Cc2cccnc2)CCN1C[C@@H](O)C[C@@H](Cc1ccccc1)C(=O)N[C@H]1c2ccccc2C[C@H]1O [indinavir] | expected levels of antiviral activity |  |  |  |  |  |  |  |  | 
3 | Tyr-Leu-Leu-Pro-Ala-Gln-Val-Asn-Ile-Asp-OH (YLLPAQVNID-OH) [peptide 1] |  | 65.0% | 135.2 % of control | 215.4 % of control | 138.4 % of control | 111.1 % of control | 165.0 % of control | 18% | 25% | did not inhibit
